“Also recorded” adds a separate entry of the source.
Legend:
[1] = tested on: patients with inclusion body myositis; experiment: Safety and tolerability of PBA in IBM patients (adverse event reporting, safety laboratory tests); type: in vivo, human; conditions: for Serious events not related to the study drug / Serious adverse events related to the study drug / Safety and tolerability / Safety laboratory tests (ALT, creatinine, creatine kinase, blood counts): IBM patients; for Serious adverse events related to the study drug: 3 gm twice daily for 3 months; for Safety and tolerability: 3 gm twice daily orally for 3 months; for Safety laboratory tests (ALT, creatinine, creatine kinase, blood counts): two subjects had mildly elevated liver enzymes at baseline
Experimental: In a study, PBA at a dose of 3 grams (gm) was administered twice daily in patients with inclusion body myositis. In this study, 10 patients received the daily doses of PBA for 3 months after run-up periods of 3 months. […] The study was conducted by monitoring biomarkers and biological indicators in the subjects. One of the biological indicators is mitochondrial membrane potential, and analyzing the biological indicator uses a mitochondrial tracker (e.g., MitoTracker) to monitor mitochondrial membrane potential. […] As such, the biomarkers, including a mitochondrial tracker, allow for monitoring the progress of treatment of IBM in the subject with PBA. Thus, the present invention can use PBA in human subjects to treat inclusion body myositis with a dose of 3 gm twice daily and monitoring biological indicators or other biomarkers to monitor progress of IBM in the subject. Safety and tolerability of PBA in IBM patients were studied, with a run-in period of 3 months without medication. Biomarkers were studied. […] We have previously assayed TDP-43 and its derivative, phosphorylated TDP-43 (pTDP-43) in peripheral blood platelets in our laboratory (Dr. Agbas). TDP43 positive cytoplasmic aggregates have been described in ALS motor neurons and IBM skeletal muscle tissue with significant up-regulation of TARDBP (the gene expresses TDP-43 protein) and SQTM1 (Sequestosome-1) gene expression.14 Therefore, we planned to measure blood-derived platelet total TDP-43 and pTDP-43 as surrogate biomarker for skeletal muscle TDP-43 profile of IBM patients. […] Secondary outcome measures included multiple strength and functional measures: manual muscle testing, timed up and go test (TUG), IBM functional rating scale (IBMFRS), and grip strength. These clinical outcome measures were commonly used in evaluating progression of IBM and in clinical trials of this disease.^18,19,20,21 In addition, safety laboratory tests and electrocardiogram would be monitored regularly. As mentioned above, the biomarkers would be repeated at the end of the treatment period. The PBA was administered orally at 3 gm doses twice a day. […] Mildly elevated liver enzyme reported in two subjects at baseline and before the treatment period. The most common adverse events which were considered related were GI symptoms (n=9). […] The safety lab tests for monitoring purposes include: Liver enzyme (ALT), renal function test (creatinine), muscle enzyme (creatine kinase) and blood counts (including WBC and platelets). For the primary outcome of safety, the frequency of Adverse Events (AEs) and Serious Adverse Events (SAEs) by grade, would be reported. This would be done for each follow-up visit as well as for all visits combined.

[2] = tested on: mitochondrial membrane potential; experiment: MitoTracker biomarker (overall mitochondrial mass / mitochondrial membrane potential) in IBM patients treated with PBA; type: in vivo, human
Source text: The mitochondrial tracker used to track treatment of IBM with PBA can include MitoTracker dyes that are cationic fluorophores that accumulate electrophoretically into mitochondria in response to the highly negative mitochondrial membrane potential. […] Thus, mitochondria retain MitoTracker dyes like MitoTracker Orange CMTMRos after loss of their membrane potential. Sec, Kholmukhamedov A, Schwartz J M, Lemasters J J. Isolated mitochondria infusion mitigates ischemia-reperfusion injury of the liver in rats: mitotracker probes and mitochondrial membrane potential. Shock. 2013 June; 39(6):543. doi:10.1097/SHK.0b013e318292300d. PMID: 23680774; PMCID: PMC3759289.
Safety and tolerability of PBA in IBM patients were studied, with a run-in period of 3 months without medication. Biomarkers were studied. […] We have previously assayed TDP-43 and its derivative, phosphorylated TDP-43 (pTDP-43) in peripheral blood platelets in our laboratory (Dr. Agbas). TDP43 positive cytoplasmic aggregates have been described in ALS motor neurons and IBM skeletal muscle tissue with significant up-regulation of TARDBP (the gene expresses TDP-43 protein) and SQTM1 (Sequestosome-1) gene expression.14 Therefore, we planned to measure blood-derived platelet total TDP-43 and pTDP-43 as surrogate biomarker for skeletal muscle TDP-43 profile of IBM patients.
The trend observed in the boxplots of MitoTracker data warranted further exploration with a post hoc analysis. A generalized linear mixed model was used to estimate mean values of MitoTracker at each timepoint. 10 of 11 subjects had measurements at all 3 timepoints. Time was used as a categorical value and correlation among an individual's repeated measurements was accounted for with a random effect for subject. The fixed effect, month, was not statistically significant (p=0.0724). […] The results from the model are exploratory.
For the secondary outcomes, the measurements at baseline, month-3, and month-7 would be reported using mean and standard deviation (or median and interquartile range for skewed measurements) along with a corresponding 95% confidence interval. These measurements would be visually compared using box plots to detect the presence of a trend over time by drawing a trend line on the means (or median). Due to the small sample size, this comparison would be done visually, and no formal statistical test would be done routinely but it would be considered to further study a trend.

[3] = AE considered possibly or probably related, 3 gm orally twice a day, 3 months
[4] = AE considered unrelated, at baseline before the treatment period
[5] = gastrointestinal AE considered possibly or probably related, 3 gm orally twice a day, 3 months

## phenylbutyrate [PBA]
[1]; [3]
  Number of occurrences: Drowsiness: 1
  Number of occurrences: Gastrointestinal AEs: 9
  Number of occurrences: Hair Loss: 1
  Number of occurrences: Musculoskeletal Pain: 2
  Number of occurrences: Nasal Congestion: 1
  Number of occurrences: Tremor: 1
  Number of occurrences: Two Itchy Skin Lesions: 1
  Number of subjects: Drowsiness: 1
  Number of subjects: Gastrointestinal AEs: 9
  Number of subjects: Hair Loss: 1
  Number of subjects: Musculoskeletal Pain: 2
  Number of subjects: Nasal Congestion: 1
  Number of subjects: Tremor: 1
  Number of subjects: Two Itchy Skin Lesions: 1
[1]; AE considered possibly or probably related, 3 gm orally twice a day, 3 months, listed as study drug
  Number of subjects: Hair Loss: One subject had hair loss which was considered possibly related
[1]; AE considered unrelated
  Number of occurrences: Back Pain: 1
  Number of occurrences: Chills: 1
  Number of occurrences: Elevated White Blood Count: 1
  Number of occurrences: Elevated blood pressure: 2
  Number of occurrences: Falls: 9
  Number of occurrences: Headache: 1
  Number of occurrences: Low blood pressure: 1
  Number of occurrences: Numbness in the Legs: 1
  Number of occurrences: Right Bundle Branch Block: 1
  Number of occurrences: Urinary Urgency: 2
  Number of subjects: Back Pain: 1
  Number of subjects: Chills: 1
  Number of subjects: Elevated White Blood Count: 1
  Number of subjects: Elevated blood pressure: 2
  Number of subjects: Falls: 6
  Number of subjects: Headache: 1
  Number of subjects: Low blood pressure: 1
  Number of subjects: Numbness in the Legs: 1
  Number of subjects: Right Bundle Branch Block: 1
  Number of subjects: Urinary Urgency: 2
[1]; [4]
  Number of occurrences: Elevated liver enzymes: 2
  Number of subjects: Elevated liver enzymes: 2
[1]
  Serious events not related to the study drug: the only serious event reported (a fall) was related to the disease itself, not the study drug
  Serious adverse events related to the study drug: no serious adverse events related to the study drug were reported
  Safety and tolerability: safe and well-tolerated
  Safety laboratory tests (ALT, creatinine, creatine kinase, blood counts): indicates safety for the PBA administration
[1]; listed as study drug
  Serious adverse events related to the study drug: No study drug-related serious events were reported
  Safety and tolerability: well tolerated
  Serious events not related to the study drug: one serious event (a fall that required a hospital visit) that was not related to the study drug
  Safety laboratory tests (ALT, creatinine, creatine kinase, blood counts): No other significant laboratory changes were noted
[1]; listed as Phenylbutyrate
  Safety and tolerability: safe and well tolerated
[1]; [5]
  Number of occurrences: Constipation: 1
  Number of occurrences: Heartburn: 4
  Number of occurrences: Nausea: 2
  Number of occurrences: Oral Aphthous: 1
  Number of occurrences: Urgency: 1
  Number of subjects: Constipation: 1
  Number of subjects: Heartburn: 4
  Number of subjects: Nausea: 2
  Number of subjects: Oral Aphthous: 1
  Number of subjects: Urgency: 1
[1]; human, in vivo
  Number of occurrences: Strep. Throat Infection: 1
  Number of subjects: Strep. Throat Infection: 1
[2]; at the end of the treatment period, 19299 at the baseline, 28823 at the beginning of the treatment period
  MitoTracker median: 8010
[2]; generalized linear mixed model, Month 3 reference, p 0.0385
  MitoTracker estimated coefficient (95% CI), Month 6: −21,344 (−41,402, −1,287)
[2]; generalized linear mixed model, after treatment vs months 0 and 3 combined
  MitoTracker estimated coefficient (95% CI), On treatment - Off treatment: 20,780 (3,091, 38,469)
[2]; treatment period vs run-in period
  MitoTracker (mitochondrial mass) change with treatment: statistically significant change in the mitochondria; also recorded: changes with treatment with PBA; also recorded: statistically significant change in MitoTracker (mitochondrial mass); also recorded: dropped at the end of the treatment period; also recorded: statistically significantly different from pre-treatment; also recorded: significant drop with treatment

— US20250017885A1, “TREATMENT OF INCLUSION BODY MYOSITIS WITH PHENYLBUTYRATE AND MONITORING OF TREATMENT” (University of Kansas, priority 2023, published 2025)
